Consider nine molecules from ChEMBL document CHEMBL5550130, “Discovery of harmiprims, harmine-primaquine hybrids, as potent and selective anticancer and antimalarial compounds” (Bioorg Med Chem, 2024).

One series relates to HCT-116. As to the kind of experiment: Antiproliferative activity against human HCT-116 cells assessed as reduction in cell viability incubated for 72 hrs by MTT assay. It counts as functional, cell-based. As to conditions: HCT-116, 72 h.
Series [1] in a line: Selectivity index, ratio of IC50 for antiproliferative activity against human HEK293T cells to IC50 for antiproliferative activity against human MCF7 cells. The following applies: HEK293T cells versus MCF7 cells, read-out: Ratio IC50. It counts as toxicity, cell-based.
The nature of series [2]: Antiproliferative activity against human HEK293T cells assessed as reduction in cell viability incubated for 72 hrs by MTT assay. It counts as toxicity, cell-based, HEK-293T. (In general: Tetrazolium dyes change colour on reduction, which living cells bring about.)
A further series has as its system HepG2. As to the kind of experiment: Antiproliferative activity against human HepG2 cells assessed as reduction in cell viability incubated for 72 hrs by MTT assay. The class given is functional, cell-based. As to conditions: HepG2, 72 h.
Another series relates to MCF7. The series can be described thus: Antiproliferative activity against human MCF7 cells assessed as reduction in cell viability incubated for 72 hrs by MTT assay. The class given is functional, cell-based. The following applies: MCF7, 72 h.
The test system of series [3] is Plasmodium falciparum. As to the kind of experiment: Antiplasmodial activity against erythrocytic stage of chloroquine-sensitive Plasmodium falciparum 3D7 assessed as inhibition of parasite growth incubated for 3 days by HRP2-ELISA. It counts as functional, organism-based. As to conditions: 3D7, 72 h. On the technique in general: In an ELISA, binding on a coated surface is turned into a signal by an enzyme label.

A short description of series [4]: Selectivity index, ratio of IC50 for antiproliferative activity against human HEK293T cells to IC50 for antiplasmodial activity against erythrocytic stage of chloroquine-sensitive Plasmodium falciparum 3D7. The class given is toxicity, cell-based. The following applies: read-out: Ratio IC50.
A further series deals with SW-620. The series can be described thus: Antiproliferative activity against human SW620 cells assessed as reduction in cell viability incubated for 72 hrs by MTT assay. The following applies: SW-620, 72 h. It counts as functional, cell-based.
Series [5] has as its system Plasmodium falciparum. The series can be described thus: Antiplasmodial activity against erythrocytic stage of chloroquine-resistant Plasmodium falciparum Dd2 assessed as inhibition of parasite growth incubated for 3 days by HRP2-ELISA. It counts as functional, organism-based. As to conditions: Dd2, 72 h.
Series [6] relates to Plasmodium falciparum. As to the kind of experiment: Resistance index, ratio of IC50 for antiplasmodial activity against erythrocytic stage of chloroquine-resistant Plasmodium falciparum Dd2 to IC50 for antiplasmodial activity against erythrocytic stage of chloroquine-sensitive Plasmodium falciparum 3D7. The class given is functional.

As for `O=c1[nH]cc(F)c(=O)[nH]1` [FLUOROURACIL], the IC50 worked out at 14.4 µM with HCT-116, 5.46 µM with HepG2 and 23.9 µM in the series with MCF7. Also, in series [1], the selectivity ratio was found to be 0.74. Moreover, the IC50 at 72 h in [2] is 17.6 µM.
Consider `COc1cc(NC(C)CCCn2cc(-c3nccc4c3[nH]c3ccccc34)nn2)c2ncccc2c1` (configuration not stated), for which the IC50 was 2.52 µM with Plasmodium falciparum [3]; 14.1 µM in the series on SW-620; 10.2 µM in the series on HCT-116; 4.48 µM in the series on Plasmodium falciparum [5]; above 50 µM in the series on HepG2; above 50 µM in the series on MCF7. The selectivity ratio in [4] was 10; in [1] it was below 0.51. Moreover, the IC50 at 72 h in series [2] was 25.3 µM. In addition, in the series with Plasmodium falciparum [6], the “Ratio IC50” value amounted to 1.77.
Turning to `COc1ccc2c(c1)[nH]c1c(C)nccc12` [HARMINE], the selectivity ratio was determined as 2.5 in [4] and 1.55 in series [1]. Further, the IC50 with SW-620 is 7.32 µM; in the series on HCT-116 it was 7.64 µM; in the series on Plasmodium falciparum [5] it was above 27.7 µM; in the series with HepG2, 14.9 µM. Also, the IC50 at 72 h in series [2] is 21 µM. The “Ratio IC50” value in the series with Plasmodium falciparum [6] is reported as above 3.36.
As to `COc1cc(NC(C)CCCN)c2ncccc2c1` (configuration not stated) [PRIMAQUINE], the IC50 in the series with Plasmodium falciparum [3] amounted to 4.87 µM; with SW-620 it was 9.2 µM; with HCT-116 it was 20.8 µM; in the series on Plasmodium falciparum [5], 5.45 µM; in the series on MCF7, 26.6 µM. For the same molecule, the selectivity ratio stood at 7.7 in series [4] and 1.42 in series [1]. For the same molecule, the IC50 at 72 h in series [2] turned out to be 37.6 µM. The “Ratio IC50” value with Plasmodium falciparum [6] stood at 1.12.
With `COc1cc(NC(C)CCCNC(=O)NCCOc2ccc3[nH]c4c(C)nccc4c3c2)c2ncccc2c1` (configuration not stated), the IC50 with Plasmodium falciparum [3] came out at 10.7 µM; in the series on SW-620 it was 10.6 µM; with HCT-116 it was 7.79 µM; in the series with Plasmodium falciparum [5], 8.84 µM; in the series with HepG2 it was 10.9 µM; in the series on MCF7 it was 14.2 µM. The selectivity ratio amounted to 1.1 in series [4] and 0.84 in series [1]. Moreover, in series [2], the IC50 at 72 h came to 12 µM. Moreover, the “Ratio IC50” value with Plasmodium falciparum [6] came out at 0.83.
As for `COc1cc(NC(C)CCCn2cc(-c3cc4c([nH]c5ccccc54)c(C)n3)nn2)c2ncccc2c1` (configuration not stated), the IC50 in the series with Plasmodium falciparum [3] is 0.857 µM; in the series with SW-620 it was 15.8 µM; with HCT-116 it was 18.3 µM; with Plasmodium falciparum [5] it was 0.632 µM; in the series with HepG2 it was above 50 µM; with MCF7, 14.5 µM. Further, the selectivity ratio was above 58.3 in series [4] and above 3.46 in series [1]. Besides, the IC50 at 72 h in [2] was above 50 µM. In addition, the “Ratio IC50” value in the series on Plasmodium falciparum [6] worked out at 0.74.
Take `COc1cc(NC(C)CCCNC(=O)NCCn2c3cc(OC)ccc3c3ccnc(C)c32)c2ncccc2c1` (configuration not stated): the IC50 with Plasmodium falciparum [3] came out at 0.702 µM; in the series on SW-620, 9.93 µM; with HCT-116, 10.6 µM; with Plasmodium falciparum [5] it was 1.1 µM; in the series on HepG2, 12.3 µM; with MCF7, 9.15 µM. The selectivity ratio was found to be 18.1 in series [4] and 1.39 in [1]. For the same molecule, in [2], the IC50 at 72 h was determined as 12.7 µM. In the series with Plasmodium falciparum [6], the “Ratio IC50” value turned out to be 1.57.
Consider `COc1cc(NC(C)CCCNC(=O)NCc2cc3c([nH]c4ccccc43)c(C)n2)c2ncccc2c1` (configuration not stated), for which the IC50 was 2.4 µM in the series with Plasmodium falciparum [3]; 25 µM in the series on SW-620; 27.2 µM with HCT-116; 2.35 µM with Plasmodium falciparum [5]; above 50 µM in the series on HepG2; 11.7 µM in the series with MCF7. The selectivity ratio is above 20.8 in [4] and above 4.29 in series [1]. The IC50 at 72 h in series [2] was above 50 µM. In addition, the “Ratio IC50” value with Plasmodium falciparum [6] worked out at 0.98.
As to `COc1cc(NC(C)CCCNC(=O)NCCOc2ccc3c(c2)[nH]c2c(C)nccc23)c2ncccc2c1` (configuration not stated), the IC50 was determined as 6.77 µM in the series on Plasmodium falciparum [3]; 7.59 µM with SW-620; 7.71 µM in the series with HCT-116; 8.07 µM in the series on Plasmodium falciparum [5]; 7.97 µM with HepG2; 8.87 µM with MCF7. For the same molecule, the results for the selectivity ratio in series [4] and in series [1] were 1.1 and 0.86, respectively. Also, the IC50 at 72 h in [2] was 7.63 µM. In the series on Plasmodium falciparum [6], the “Ratio IC50” value is recorded as 1.2.

One may read the IC50 as the concentration at which inhibition is half-maximal.
